Laboratory results reported in PMC12670427, “FDA Drug Repurposing Uncovers Modulators of Dopamine D2 Receptor Localization via Disruption of the NCS‑1 Interaction” (Journal of Medicinal Chemistry, 2025).
Where “and” joins values, the source holds several entries; their conditions need not be identical. Identical values can stand only once. Counter-ions that a name gives are not always drawn.

Tests used:
full-length NCS-1 [1] = target: T1, full-length NCS-1 (Homo sapiens, UniProt P62166); test: Tryptophan intrinsic emission fluorescence binding to full-length NCS-1; conditions: full-length NCS-1 5 μM, Trp emission at 330 nm, 35 °C, apparent Kd mean ± SD
T1 construct: For biophysical and crystallographic assays, full-length human NCS-1; made in house
T1 sequence (P62166 whole entry): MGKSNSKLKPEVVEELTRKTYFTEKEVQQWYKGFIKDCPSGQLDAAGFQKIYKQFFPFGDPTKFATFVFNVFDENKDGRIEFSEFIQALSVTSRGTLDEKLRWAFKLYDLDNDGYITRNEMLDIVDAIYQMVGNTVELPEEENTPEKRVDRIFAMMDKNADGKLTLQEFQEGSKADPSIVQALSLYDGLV
Protocol: To experimentally assess the binding of the FDA-approved drug library to NCS-1 we used tryptophan emission fluorescence. ,, Fluorescence intensity changes were measured at 330 nm in full-length NCS-1 upon increasing concentrations of the selected compounds (Figure A).

[2] = known drug property listed in Supplementary Table 1, no reference given; cited from earlier work
NCS-1/D2R interaction = target: T2, NCS-1/D2R interaction (Homo sapiens, UniProt P62166); test: Proximity ligation assay (PLA) with flow cytometry; assay type: cell-based; conditions: HEK293 cells, 5 μM, 16 h; vehicle set to 100%; mean ± SD
T2 construct: expressed in transfected cells; host or cells: HEK293
T2 sequence (P62166 2-190 limits assumed): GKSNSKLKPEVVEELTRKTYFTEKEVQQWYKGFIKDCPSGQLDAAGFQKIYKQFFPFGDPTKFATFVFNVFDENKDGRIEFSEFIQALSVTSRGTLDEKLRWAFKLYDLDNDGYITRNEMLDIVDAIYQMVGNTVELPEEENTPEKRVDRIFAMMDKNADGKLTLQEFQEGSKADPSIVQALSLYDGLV

NCS-1ΔH10 = target: T3, NCS-1ΔH10 (Homo sapiens, UniProt P62166); test: Intrinsic emission fluorescence binding to NCS-1ΔH10; conditions: NCS-1ΔH10, intrinsic emission fluorescence; read-out: apparent binding affinity for H10-truncated NCS-1
T3 construct: NCS-1 construct lacking helix H10; made in house
T3 sequence (P62166 1-177 limits assumed, stated change not applied): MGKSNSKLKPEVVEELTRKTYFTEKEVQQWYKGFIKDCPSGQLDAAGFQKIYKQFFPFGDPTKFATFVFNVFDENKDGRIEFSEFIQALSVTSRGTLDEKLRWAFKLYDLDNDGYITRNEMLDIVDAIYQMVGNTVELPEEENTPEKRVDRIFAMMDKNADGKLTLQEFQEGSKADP
Protocol: To determine the affinity of the FDA-approved drugs for full-length NCS-1 or NCS-1ΔH10, we used fluorescence techniques, since the presence of tryptophan (Trp) and tyrosine (Tyr) residues in NCS-1 sequence confers the protein intrinsic emission fluorescence when excited at 295 nm. Fluorescence intensity was monitored at 330 nm and 35 °C with a nano-DSF machine (nanoTemper). Protein concentration was set to 5 μM in a buffer containing Tris 50 mM pH 8.0, NaCl 125 mM, CaCl2 5 μM, 5% DMSO. Ligand concentration was increased up to 150 μM. Three independent experiments were performed for each protein:ligand ratio. […] In fact, compound FDA-02, 09, 11, 15, 21, and 22 were measured using SPR due to their high intrinsic emission at 330 nm. The apparent dissociation constant, K d, was obtained by using a least-squares algorithm to fit the recorded data to the equation previously described. Apparent K d values are reported as mean ± SD. ,
Prior crystallization, the contribution of the helix H10 to ligand binding was assessed in case this information could guide construct selection for structural studies. […] Given the initial high affinity of AZS for full-length NCS-1, the affinity for the H10-truncated construct was not measured. Initial crystallization screenings yielded to crystals of ATV in complex with full-length NCS-1. […]

[3] = system: D2R subcellular localization in HEK293 cells; test: Sequential immunostaining for D2R localization (membrane vs cytoplasm); assay type: cell-based, human; conditions: for effect of trafficking tool compounds on NCS-1-induced D2R membrane localization: HEK293 cells, NCS-1 overexpression
Protocol: HEK293 cells were seeded on poly-D-lysine-coated glass coverslips in 24-well plates. Following transfection and drug treatments, cells were fixed with 2% paraformaldehyde (PFA) for 10 min and with 4% PFA for an additional 10 min at room temperature. Coverslips with fixed cells were then blocked in PBS containing 10% normal goat serum (NGS) for 30 min at room temperature.
After three PBS washes, fluorescence was fixed with 10% formaldehyde for 3 min. The second round started with a blocking step using PBS containing 10% NGS and 0.03% Triton X-100 for 1 h at room temperature. […] Coverslips were washed with PBS and mounted using ProLong Gold Antifade (Thermo Fisher Scientific) with Hoechst for nuclear counterstaining. Confocal images were acquired using either a Leica SP5 or a Nikon ECLIPSE Ti microscope, depending on the experiment. […] Individual confocal images were processed by setting intensity thresholds for the green (cytoplasmic) and red (membrane) channels. Fluorescence intensity was then measured separately for each channel, and the relative proportion of green to red signal was calculated for each image.

[4] = Solubility under the binding assay conditions; assay type: physicochemical; conditions: SPR running buffer; precipitated on the sensor chip
From the text: (§1) Sensorgrams data were double-referenced and solvent-corrected using the BiaEvaluation X-100 software (Biacore, GE).

full-length NCS-1 [5] = target: T1, full-length NCS-1; test: Surface plasmon resonance over CM4-immobilized NCS-1; assay type: binding; conditions: SPR, NCS-1 immobilized on CM4 chip, 25 °C; used for compounds that emit at 330 nm; read-out: NCS-1/FDA Affinity, Kd
From the text: In these experiments, full-length NCS-1 was cross-linked to the surface of the biosensor, through its lysine amino acids, since these residues are concentrated on the upper surface and opposite to the hydrophobic crevice. This arrangement ensured that the hydrophobic crevice remained exposed to the solvent.
NCS-1 was immobilized on a CM4 sensor chip (Biacore, GE) following a standard amine coupling method. The carboxymethyl dextran surface of the flow cell 2 was activated by injecting a 1:1 mixture of 0.4 M EDC and 0.1 M NHS for 7 min. The protein was then covalently coupled to the surface via a 7 min injection at several dilutions, with a final concentration of 100 μg/mL in 10 mM sodium acetate, pH 4.0. Unreacted N-hydroxysuccinimide esters were quenched by a 7 min injection of 0.1 M ethanolamine-HCl pH 8.0, achieving an immobilization level of 5000 RUs. Flow cell 1, subjected to the same amine coupling procedure but without protein, served as a reference (Supplementary Figure 3A). Prior to use, 10 mM stock solutions of FDA-approved drugs were serially diluted to final concentration of 100 μM in running buffer. […] After dissociation, an additional wash step was performed using a 50% DMSO solution. Regeneration was not required.
as §1

[6] = read-out: NCS-1/FDA Affinity, Kd

| Compound | Crossing the blood-brain barrier [2] | Kd (full-length NCS-1 [1]; [6]) | other results |
| --- | --- | --- | --- |
| CCCCCCCN(CC)CCCC(O)c1ccc(NS(C)(=O)=O)cc1 (centres unmarked) [Ibutilide fumarate] | No |  | NCS-1/FDA Affinity, Kd (full-length NCS-1 [1]): No affinity |
| Cc1c(O)cccc1C(=O)N[C@@H](CSc1ccccc1)[C@H](O)CN1C[C@H]2CCCC[C@H]2C[C@H]1C(=O)NC(C)(C)C [Nelfinavir] | No | 47.6 ± 4.1 µM | PPI modulation (PLA): NCS-1/D2R binding relative to vehicle-treated controls (NCS-1/D2R interaction): 112.0 ± 12.7% |
| CN1C[C@H](C(=O)N[C@]2(C)O[C@@]3(O)[C@@H]4CCCN4C(=O)[C@H](Cc4ccccc4)N3C2=O)C=C2c3cccc4[nH]cc(c34)C[C@H]21 [Ergotamine] | No |  | Kd (full-length NCS-1 [1]; NCS-1/FDA Affinity, Kd): 122 ± 18 µM |
| CCN(CC)CCOc1ccc(C(=C(Cl)c2ccccc2)c2ccccc2)cc1 [Clomiphene citrate] | No |  |  |
| CC(C)CN(C[C@@H](O)[C@H](Cc1ccccc1)NC(=O)O[C@H]1CO[C@H]2OCC[C@H]21)S(=O)(=O)c1ccc(N)cc1 [Darunavir] | No |  |  |
| C[C@]12CC[C@@H]3c4ccc(O)cc4C[C@@H](CCCCCCCCC[S+]([O-])CCCC(F)(F)C(F)(F)F)[C@H]3[C@@H]1CC[C@@H]2O (some centres unmarked) [Faslodex] | No |  |  |
| N#Cc1ccc2[nH]cc(CCCCN3CCN(c4ccc5oc(C(N)=O)cc5c4)CC3)c2c1 [Vilazodone] | Yes | 34 µM and 34.4 µM | Kd (NCS-1ΔH10): 8 µM; effect on D2R localization in the absence of NCS-1 overexpression ([3]; HEK293 cells transfected with D2R alone): affected D2R localization |
| CS(=O)(=O)CCNCc1ccc(-c2ccc3ncnc(Nc4ccc(OCc5cccc(F)c5)c(Cl)c4)c3c2)o1 [Lapatinib] | No |  |  |
| CCN(CC)CCNC(=O)c1c(C)[nH]c(/C=C2\C(=O)Nc3ccc(F)cc32)c1C [Sunitinib] | No |  |  |
| CCOc1nc2cccc(C(=O)OCc3oc(=O)oc3C)c2n1Cc1ccc(-c2ccccc2-c2noc(=O)[nH]2)cc1 [Azilsartan medoxomil] | Low penetrance |  |  |
| O=C(N/N=C/c1ccc(O)c(O)c1)c1cc2ccccc2cc1O [Dynasore] |  |  | effect of trafficking tool compounds on NCS-1-induced D2R membrane localization [3]: did not significantly affect |
| CCCN(CCC)CCc1cccc2c1CC(=O)N2 [Ropinirole] |  |  | effect of trafficking tool compounds on NCS-1-induced D2R membrane localization [3]: reversed this effect |
| C[C@H]1CCC/C=C/[C@@H]2C[C@H](O)C[C@H]2[C@H](O)/C=C/C(=O)O1 [BFA, Brefeldin A] |  |  | effect of trafficking tool compounds on NCS-1-induced D2R membrane localization [3]: prevented the NCS-1-induced increase in membrane D2R |
| COC(=O)N[C@H](C(=O)N1CCC[C@H]1c1nc(-c2ccc(-c3ccc(-c4c[nH]c([C@@H]5CCCN5C(=O)[C@@H](NC(=O)OC)C(C)C)n4)cc3)cc2)c[nH]1)C(C)C [Daclatasvir] | No | 7.2 ± 0.1 µM | PPI modulation (PLA): NCS-1/D2R binding relative to vehicle-treated controls (NCS-1/D2R interaction): 114.6 ± 17.4% |
| CCN(CCO)CCCC(C)Nc1ccnc2cc(Cl)ccc12 (centres unmarked) [Hydroxychloroquine sulfate] | Yes | 353 ± 138 µM |  |
| Capreomycin sulfate |  |  | effect on NCS-1-induced D2R membrane localization ([3]; HEK293 cells cotransfected with D2R and NCS-1, 5 μM, 2 h): modest effect |
| Cc1ccc(NC(=O)c2ccc(CN3CCN(C)CC3)cc2)cc1Nc1nccc(-c2cccnc2)n1 [Imatinib] | Yes |  |  |
| O=C1Cc2cc(CCN3CCN(c4nsc5ccccc45)CC3)c(Cl)cc2N1 [ziprasidone] |  |  | solubility under the experimental conditions [4]: low solubility |
| CCCCCCOC(=O)NC(=N)c1ccc(NCc2nc3cc(C(=O)N(CCC(=O)OCC)c4ccccn4)ccc3n2C)cc1 [Dabigatran etexilate] | No | 13.2 ± 2.5 µM |  |
| CCN(CC)CCCC(C)Nc1ccnc2cc(Cl)ccc12 (centres unmarked) [Chloroquine] | Yes | 200 ± 35 µM |  |
| CC(C)c1c(C(=O)Nc2ccccc2)c(-c2ccccc2)c(-c2ccc(F)cc2)n1CC[C@@H](O)C[C@@H](O)CC(=O)O [Atorvastatin] |  | 53 µM and 53.1 µM | Kd (NCS-1ΔH10): 17 µM |
| OCc1cc(C(O)CNCCCCCCOCCCCc2ccccc2)ccc1O (centres unmarked) [Salmeterol] | Yes |  | Kd (full-length NCS-1 [5]): 68.2 ± 17.9 µM; PPI modulation (PLA): NCS-1/D2R binding relative to vehicle-treated controls (NCS-1/D2R interaction): 96.5 ± 17.2% |
| CNCCCC1c2ccccc2C=Cc2ccccc21 [Protriptyline hydrochloride] | Yes |  |  |
